Read-outs that look alike come from different tables or passages of the source.
What was measured:
[1] = molecular target: T1, M1 muscarinic receptors expressed in CHO cells (Homo sapiens, UniProt P11229); assay: [3H]-arachidonic acid release screen with and without ACh and modulator; format: cell-based; details: 10 μM modulator
T1 construct: expressed in transfected cells; host or cells: CHO (CHO-hM1, stably transfected)
T1 sequence (P11229 1-460): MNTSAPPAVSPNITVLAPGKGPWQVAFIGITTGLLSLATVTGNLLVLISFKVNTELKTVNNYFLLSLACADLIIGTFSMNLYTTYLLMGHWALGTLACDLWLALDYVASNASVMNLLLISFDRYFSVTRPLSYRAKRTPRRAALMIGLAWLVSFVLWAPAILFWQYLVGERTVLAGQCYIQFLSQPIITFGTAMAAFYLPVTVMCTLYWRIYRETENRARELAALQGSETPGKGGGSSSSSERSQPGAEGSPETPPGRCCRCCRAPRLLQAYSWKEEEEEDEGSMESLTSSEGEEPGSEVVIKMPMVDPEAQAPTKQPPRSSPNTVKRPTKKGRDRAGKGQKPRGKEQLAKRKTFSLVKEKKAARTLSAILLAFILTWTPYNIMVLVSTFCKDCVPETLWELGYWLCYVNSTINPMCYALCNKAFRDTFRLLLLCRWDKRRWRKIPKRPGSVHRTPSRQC
Protocol: CHO cells expressing human M1 muscarinic receptors were cultured at 37° C. in a 5% CO2 atmosphere in F12 medium supplemented with 5% fetal bovine serum, 100 units/mL penicillin, and 100 μg/mL streptomycin.
Measurement of [^3H]AA release was performed. Stably transfected CHO-hM1 or CHO-hM3 cells were seeded on 24-well plates (Greiner Bio-One GmbH, Frickenhausen, Germany) at a density of 5.0×10^4 cells/well in 0.5 ml of F-12 medium. Cells were incubated until they attached (approximately 3 h), followed by the addition of [^3H]AA to a final concentration of 0.05 μCi of [^3H]AA per well. The cells were then grown for 16 to 20 h before the assay was performed. [^3H]AA release was measured in Eagle's basal medium with 20 mM HEPES and 2 mg/ml fatty acid-free bovine serum albumin (EM-BSA). Cells were rinsed twice with EM-BSA, followed by the addition of EM-BSA media containing experimental agents and incubated for 1 h at 37° C. The assay was terminated by aspiration of the media, and the amount of [^3H]AA released was determined by liquid scintillation counting (Beckman-Coulter LS6500).
For some assays, pretreatment with phenoxybenzamine (POB) was employed, as indicated, to reduce the number of available receptors per cell. Stock POB was made up at 10 mM in ethanol and stored at −20° C. Each well was pretreated with 0.5 ml of the appropriate concentration in PBS with 1 mM CaCl2 and 1 mM MgCl2 (PBS++) for 30 min at 37° C., followed by 5 washes with PBS++. After pretreatment, the normal protocol was followed as above.
Tabulated [^3H]AA release data are represented as a fraction of maximal release in the presence of 100 μM ACh or as the fraction of release elicited by the appropriate concentration of ACh alone, as indicated dose-response curves were normalized to the maximal response of ACh without allosteric ligand. Some response curves were analyzed using the empirical four-parameter equation: […]
Disintegration per minute (DPM) values for a single compound were obtained in triplicate, and each compound was evaluated on three separate 24-well plates. The mean values for each condition from each of the three 24-well plates were used for the statistical analysis. The baseline mean was subtracted from each value, then normalized to the mean response produced by 100 μM ACh (set at 1.0). Statistical analyses were completed on the normalized values via one-way repeated measures ANOVA with Tukey's post hoc test. Statistically significant differences are noted as follows: *, p<0.05; **, p<0.01; ***, p<0.001.

[2] = test system: wild-type zebrafish larvae; assay: Maximum tolerated concentration (MTC) determination in zebrafish larvae; format: in vivo, Danio rerio
Protocol: Determination of maximum tolerated concentration was completed by placing 5 days post fertilization (dpf) wild-type zebrafish larvae in a 24 well plate at 6 fish per well, and one compound concentration per well. […] Death was determined by the absence of heartbeat. Additional endpoints were used to assess toxicity at non-lethal concentrations such as startle capacity (poke stimulus), abnormalities in swimming behavior (loss of dorsoventral balance), and gross morphological deformities (bent body). […] The MTC determination was used to select three doses of each compound (low, medium, high dose) to be used in behavioral assays.

[3] = test system: wild-type zebrafish larvae; assay: General locomotor assay in zebrafish larvae (locomotor activity, repetitive behaviors); format: in vivo, Danio rerio; details: for response vs control in vivo at 10 µM: Danio rerio, Table 5, 10 μM concentration, N = 12
Protocol: Five days post fertilization (dpf) zebrafish larvae were exposed to a range of nonlethal concentrations of the compounds in a 24-well plate with appropriate controls. The movement of each larval zebrafish was monitored with the Noldus behavior recording system (Noldus Information Technology, Leesburg VA) and quantified using EthoVision® XT 15 software (Noldus Information Technology, Leesburg VA). The plate was immediately placed in the incubator for a 30-minute exposure period. After 30 minutes, the plate was transferred to the Noldus system and swimming behavior was recorded in 100% light for 30 minutes to measure spontaneous swimming behavior. The light was switched off for 10 minutes (dark period) and then switched on for 10 minutes (light period), which was then repeated for two additional cycles. In total, the larvae were exposed to three cycles of alternating 10-minute dark and light periods (100% darkness-to-100% light). […]
All data for exposure and the behavioral end points were analyzed by one-way ANOVA (factor: drug conc) followed by a Dunnett's multiple comparisons test for post hoc significance between drug concentration and control group. Statistically significant differences are noted as follows: *, p<0.05; **, p<0.01; ***, p<0.001.

[4] = after 24-hour exposure, Table 3
[5] = after 24-hour exposure in separate experiments, Table 5
[6] = read-out: Variance of Turn Angle

| SMILES | Ratio of response of ACh with modulator to response of ACh alone, 0.1 μM ACh ([1]; Table 1) | Ratio of response of ACh with modulator to response of ACh alone, 100 μM ACh ([1]; Table 1) | Stimulation of [3H]AA release, No ACh (fraction of stimulation above the control) ([1]; Table 1) | Maximum Tolerated Concentration [2, 4] | Ratio of response of ACh with modulator to response of ACh alone, 0.1 μM ACh ([1]; Table 4, N = 4-5) | Ratio of response of ACh with modulator to response of ACh alone, 100 μM ACh ([1]; Table 4, N = 4-5) | Stimulation of [3H]AA release, No ACh (fraction of stimulation above the control) ([1]; Table 4, N = 4-5) | Maximum Tolerated Concentration [2, 5] | response vs control in vivo at 10 µM ([3]; read-out: Angular Velocity) | response vs control in vivo at 10 µM ([3]; read-out: Total Distance Moved) | response vs control in vivo at 10 µM [3, 6] | Effect on locomotor activity, angular velocity and turn angle (in words) ([3]; spontaneous swimming period) |
| --- | --- | --- | --- | --- | --- | --- | --- | --- | --- | --- | --- | --- |
| COc1cc(CN2C(=O)C(=O)c3ccccc32)cc(OC)c1OC [Compound 8k, 1-(3,4,5-trimethoxybenzyl)indoline-2,3-dione] | 1.37 ± 0.08 | 0.83 ± 0.01 | 0.03 ± 0.00 | 30 µM |  |  |  |  |  |  |  |  |
| O=C1C(=O)N(Cc2ccc(O)cc2)c2ccccc21 [Compound 10, 1-(4-hydroxybenzyl)indoline-2,3-dione] | 1.60 ± 0.10 | 0.92 ± 0.06 | 0.01 ± 0.01 | 10 µM |  |  |  |  |  |  |  |  |
| CCCCc1oc2ccc(NS(C)(=O)=O)cc2c1C(=O)c1ccc(OCCCN(CCCC)CCCC)cc1 [Dronedarone, reference compound] | 0.25 ± 0.05 | 0.75 ± 0.07 | 0.08 ± 0.01 | 10 µM |  |  |  |  |  |  |  |  |
| COc1c(I)cc(CN2C(=O)C(=O)c3cc(OC(F)(F)F)ccc32)cc1I [GK-1-44] |  |  |  |  | 2.47 ± 0.22 | 1.67 ± 0.11 | 0.37 ± 0.04 | 10 µM | 114 ± 19.2% | 78.5 ± 11.1% | 105 ± 10.6% |  |
| COc1c(Br)cc(CN2C(=O)C(=O)c3cc(OC(F)(F)F)ccc32)cc1Br [GK-1-48] |  |  |  |  | 3.04 ± 0.47 | 1.66 ± 0.07 | 0.15 ± 0.01 | 3 µM | 134 ± 16.5% | 80.1 ± 11.7% | 109 ± 11.9% | significant increase in angular velocity |
| COc1c(Br)cc(Cn2cc(C(=O)O)c(=O)c3ccccc32)cc1Br [GK-1-50] |  |  |  |  | 2.77 ± 0.49 | 1.11 ± 0.12 | 0.47 ± 0.10 | 10 µM | 124 ± 21.8% | 87.9 ± 10.7% | 107 ± 11.2% |  |

— patent US20260109674A1, “ALLOSTERIC MODULATION OF MUSCARINIC ACETYLCHOLINE RECEPTOR EFFICACY” (The University of Toledo, priority 2022, published 2026)
